Test results reported in patent US11739098B2 (BRISTOL-MYERS SQUIBB COMPANY, priority 2017, dated 2023).
pIC50: −log10 of the molar value.

Columns and labels:
Assay type in all cases: cell-based
[1] = molecular target: T1, human TLR7 (Homo sapiens, UniProt Q9NYK1); test: TLR7 inhibition reporter assay (HEK-Blue cells, SEAP reporter, gardiquimod stimulation); settings: HEK-Blue cells overexpressing human TLR7, SEAP reporter, gardiquimod 7.5 μM
T1 construct: host or cells: HEK-Blue cells (HEK293-derived reporter line)
T1 sequence (Q9NYK1 27-1049): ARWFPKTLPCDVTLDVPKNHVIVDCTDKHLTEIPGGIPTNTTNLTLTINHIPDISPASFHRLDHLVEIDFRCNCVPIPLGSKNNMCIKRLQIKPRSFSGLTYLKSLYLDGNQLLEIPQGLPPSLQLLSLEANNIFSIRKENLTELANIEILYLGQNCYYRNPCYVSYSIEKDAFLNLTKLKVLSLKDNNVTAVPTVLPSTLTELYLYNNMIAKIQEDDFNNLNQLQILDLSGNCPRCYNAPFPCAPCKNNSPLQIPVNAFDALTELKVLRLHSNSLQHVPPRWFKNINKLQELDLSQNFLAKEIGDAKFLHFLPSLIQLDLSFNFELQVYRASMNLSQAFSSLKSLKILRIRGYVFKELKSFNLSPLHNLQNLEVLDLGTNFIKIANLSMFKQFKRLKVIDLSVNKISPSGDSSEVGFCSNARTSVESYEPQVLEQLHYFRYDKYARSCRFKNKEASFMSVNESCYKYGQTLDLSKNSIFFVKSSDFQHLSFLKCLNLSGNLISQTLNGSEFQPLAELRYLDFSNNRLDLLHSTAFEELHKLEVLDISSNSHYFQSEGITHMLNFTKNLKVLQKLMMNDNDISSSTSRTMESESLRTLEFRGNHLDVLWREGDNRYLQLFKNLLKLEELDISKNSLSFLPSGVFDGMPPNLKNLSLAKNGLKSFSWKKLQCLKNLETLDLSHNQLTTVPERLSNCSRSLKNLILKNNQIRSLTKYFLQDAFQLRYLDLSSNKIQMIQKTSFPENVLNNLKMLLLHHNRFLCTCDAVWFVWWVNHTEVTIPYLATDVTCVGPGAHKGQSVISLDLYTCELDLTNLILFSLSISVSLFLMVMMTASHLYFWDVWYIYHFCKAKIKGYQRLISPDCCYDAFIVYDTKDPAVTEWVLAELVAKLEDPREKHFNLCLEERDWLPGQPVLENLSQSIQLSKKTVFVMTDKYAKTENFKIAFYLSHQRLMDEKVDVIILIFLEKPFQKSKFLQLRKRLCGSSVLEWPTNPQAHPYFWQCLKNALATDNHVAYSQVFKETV
In short: (§1)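 Percent inhibition of agonist-induced SEAP secretion in HEK-Blue cells after 22 h at 37 °C. Stimuli: 7.5 μM gardiquimod, 15.9 μM R848, 5 nM ODN2006 for TLR7, TLR8 and TLR9, added after 30 min compound exposure over a 0.05 nM–50 μM range.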

[2] = molecular target: T2, human TLR8 (Homo sapiens, UniProt Q9NR97); test: TLR8 inhibition reporter assay (HEK-Blue cells, SEAP reporter, R848 stimulation); settings: HEK-Blue cells overexpressing human TLR8, SEAP reporter, R848 15.9 μM
T2 construct: host or cells: HEK-Blue cells (HEK293-derived reporter line)
T2 sequence (Q9NR97 27-1041): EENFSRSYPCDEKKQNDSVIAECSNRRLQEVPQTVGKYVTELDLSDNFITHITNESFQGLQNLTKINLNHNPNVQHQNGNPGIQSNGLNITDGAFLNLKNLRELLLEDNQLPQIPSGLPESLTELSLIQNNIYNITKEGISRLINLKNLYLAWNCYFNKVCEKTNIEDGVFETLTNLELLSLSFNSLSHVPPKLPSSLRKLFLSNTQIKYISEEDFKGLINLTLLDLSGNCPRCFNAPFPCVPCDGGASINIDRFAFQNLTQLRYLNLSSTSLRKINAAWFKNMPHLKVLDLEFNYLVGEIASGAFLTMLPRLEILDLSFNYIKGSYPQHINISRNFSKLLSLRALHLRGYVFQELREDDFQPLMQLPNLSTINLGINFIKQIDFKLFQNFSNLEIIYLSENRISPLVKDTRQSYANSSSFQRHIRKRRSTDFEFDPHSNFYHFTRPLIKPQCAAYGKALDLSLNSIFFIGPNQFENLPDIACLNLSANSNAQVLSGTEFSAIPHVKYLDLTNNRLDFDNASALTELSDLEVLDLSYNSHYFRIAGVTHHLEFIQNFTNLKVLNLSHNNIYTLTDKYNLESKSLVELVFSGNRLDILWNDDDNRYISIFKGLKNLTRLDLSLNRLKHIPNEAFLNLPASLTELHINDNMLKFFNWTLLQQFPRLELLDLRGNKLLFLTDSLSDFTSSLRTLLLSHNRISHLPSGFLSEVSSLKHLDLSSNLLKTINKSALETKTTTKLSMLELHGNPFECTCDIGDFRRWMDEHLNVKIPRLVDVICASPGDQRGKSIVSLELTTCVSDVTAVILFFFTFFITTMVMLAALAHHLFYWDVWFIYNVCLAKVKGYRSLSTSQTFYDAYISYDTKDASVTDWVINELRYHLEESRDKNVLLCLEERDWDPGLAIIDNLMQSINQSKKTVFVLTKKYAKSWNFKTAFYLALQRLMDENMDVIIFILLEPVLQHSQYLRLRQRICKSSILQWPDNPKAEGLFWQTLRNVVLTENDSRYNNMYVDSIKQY
In short: as §1

[3] = molecular target: T3, human TLR9 (Homo sapiens, UniProt Q9NR96); test: TLR9 inhibition reporter assay (HEK-Blue cells, SEAP reporter, ODN2006 stimulation); settings: HEK-Blue cells overexpressing human TLR9, SEAP reporter, ODN2006 5 nM
T3 construct: host or cells: HEK-Blue cells (HEK293-derived reporter line)
T3 sequence (Q9NR96 26-1032): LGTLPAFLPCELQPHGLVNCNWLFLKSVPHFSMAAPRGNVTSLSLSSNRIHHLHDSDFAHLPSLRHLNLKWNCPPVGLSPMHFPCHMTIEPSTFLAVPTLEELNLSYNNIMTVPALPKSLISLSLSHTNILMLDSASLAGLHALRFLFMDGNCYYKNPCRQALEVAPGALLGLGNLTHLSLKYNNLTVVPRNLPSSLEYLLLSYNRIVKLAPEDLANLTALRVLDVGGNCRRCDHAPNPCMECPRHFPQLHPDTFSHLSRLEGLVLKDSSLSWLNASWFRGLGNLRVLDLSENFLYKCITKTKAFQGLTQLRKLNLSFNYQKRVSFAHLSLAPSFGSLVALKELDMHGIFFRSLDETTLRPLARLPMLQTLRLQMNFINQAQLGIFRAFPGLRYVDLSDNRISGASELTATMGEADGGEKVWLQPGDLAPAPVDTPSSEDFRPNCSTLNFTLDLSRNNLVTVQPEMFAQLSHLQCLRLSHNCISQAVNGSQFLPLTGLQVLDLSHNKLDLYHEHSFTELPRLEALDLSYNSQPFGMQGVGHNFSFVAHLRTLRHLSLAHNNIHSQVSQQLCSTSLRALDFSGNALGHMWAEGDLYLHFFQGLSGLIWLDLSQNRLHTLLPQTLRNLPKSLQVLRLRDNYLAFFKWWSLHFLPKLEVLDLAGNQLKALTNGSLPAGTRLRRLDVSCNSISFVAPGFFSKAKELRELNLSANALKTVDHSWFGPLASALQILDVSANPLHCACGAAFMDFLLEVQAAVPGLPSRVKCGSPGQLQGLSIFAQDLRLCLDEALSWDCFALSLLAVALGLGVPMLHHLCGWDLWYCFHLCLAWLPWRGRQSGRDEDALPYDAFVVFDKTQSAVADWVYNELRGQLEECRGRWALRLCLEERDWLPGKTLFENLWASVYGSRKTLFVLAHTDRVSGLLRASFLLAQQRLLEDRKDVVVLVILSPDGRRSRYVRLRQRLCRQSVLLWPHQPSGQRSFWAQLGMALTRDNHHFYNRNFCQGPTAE
In short: as §1

pIC50 [1] | pIC50 [2] | pIC50 [3] | SMILES
6.00 to 7.00 | 6.00 to 7.00 | 4.30 to 6.00 | CCc1c(-c2ccnc3[nH]ncc23)[nH]c2ccc(C3CCN(Cc4ncco4)CC3)cc12 [Example 867, 2-((4-(3-ethyl-2-(1H-pyrazolo[3,4-b]pyridin-4-yl)-1H-indol-5-yl)piperidin-1-yl)methyl)oxazole]
6.00 to 7.00 | 4.30 to 6.00 | 4.30 to 6.00 | CNC(=O)CN1CCC(c2ccc3[nH]c(-c4ccn5nc(C)cc5c4)c(C(C)C)c3c2)CC1 [Example 322, 2-(4-(3-isopropyl-2-(2-methylpyrazolo[1,5-a]pyridin-5-yl)-1H-indol-5-yl)piperidin-1-yl)-N-methylacetamide]
> 7.00 | > 7.00 | 6.00 to 7.00 | COc1cc(-c2[nH]c3ccc(C4CCN(CC#N)CC4)cc3c2C(C)C)cn2ccnc12 [Example 950, 2-(4-(3-isopropyl-2-(8-methoxyimidazo[1,2-a]pyridin-6-yl)-1H-indol-5-yl)piperidin-1-yl)acetonitrile]
> 7.00 | 6.00 to 7.00 | 6.00 to 7.00 | Cc1nc2c(C)cc(-c3[nH]c4ccc(C5CCN(C(=O)CN(C)C)CC5)cc4c3C(C)C)cn2c1C [Example 527, 2-(dimethylamino)-1-(4-(3-isopropyl-2-(2,3,8-trimethylimidazo[1,2-a]pyridin-6-yl)-1H-indol-5-yl)piperidin-1-yl)ethan-1-one]
4.30 to 6.00 | 4.30 to 6.00 | 6.00 to 7.00 | Cc1cc(-c2[nH]c3ccc(C4CCNCC4)cc3c2C(C)C)c2[nH]c(C)cc2n1 [Example 40, 7-(3-isopropyl-5-(piperidin-4-yl)-1H-indol-2-yl)-2,5-dimethyl-1H-pyrrolo[3,2-b]pyridine]
6.00 to 7.00 | 6.00 to 7.00 | 6.00 to 7.00 | CC(C)c1c(-c2ncnn3cccc23)[nH]c2ccc(C3CCNCC3)cc12 [Example 191, 4-(3-isopropyl-5-(piperidin-4-yl)-1H-indol-2-yl)pyrrolo[2,1-f][1,2,4]triazine]
> 7.00 | 6.00 to 7.00 | < 4.30 | Cc1cc(-c2[nH]c3ccc(C4CCN(C(=O)CN5CCC(F)(F)CC5)CC4)cc3c2C(C)C)cn2nnnc12 [Example 482, 2-(4,4-difluoropiperidin-1-yl)-1-(4-(3-isopropyl-2-(8-methyltetrazolo[1,5-a]pyridin-6-yl)-1H-indol-5-yl)piperidin-1-yl)ethan-1-one]
> 7.00 | > 7.00 | 4.30 to 6.00 | Cc1cc(-c2[nH]c3ccc(C4CCN(C(=O)CN(C)C)CC4)cc3c2C(C)C)c(C)n2nnnc12 [Example 469, 2-(dimethylamino)-1-(4-(2-(5,8-dimethyltetrazolo[1,5-a]pyridin-6-yl)-3-isopropyl-1H-indol-5-yl)piperidin-1-yl)ethan-1-one]
6.00 to 7.00 | 6.00 to 7.00 | 6.00 to 7.00 | Cc1cc(-c2[nH]c3ccc(C4CCN(C(=O)CN(C)C)CC4)cc3c2C(C)C)cc2nccn12 [Example 500, 2-(dimethylamino)-1-(4-(3-isopropyl-2-(5-methylimidazo[1,2-a]pyridin-7-yl)-1H-indol-5-yl)piperidin-1-yl)ethan-1-one]
> 7.00 | < 5.51 | < 4.30 | Cc1nc2cc(-c3[nH]c4ccc(C5CCN(C(=O)C[C@H](C)O)CC5)cc4c3C(C)C)ccn2n1 [Example 602, (S)-3-hydroxy-1-(4-(3-isopropyl-2-(2-methyl-[1,2,4]triazolo[1,5-a]pyridin-7-yl)-1H-indol-5-yl)piperidin-1-yl)butan-1-one]
> 7.00 | > 7.00 | 6.00 to 7.00 | CC(C)c1c(-c2ccnc3[nH]ncc23)[nH]c2ccc(C3CCN(C(=O)CNCCCN(C)C)CC3)cc12 [Example 575, 2-((3-(dimethylamino)propyl)amino)-1-(4-(3-isopropyl-2-(1H-pyrazolo[3,4-b]pyridin-4-yl)-1H-indol-5-yl)piperidin-1-yl)ethan-1-one]
> 7.00 | 6.00 to 7.00 | 4.30 to 6.00 | CNC(=O)CN1CCC(c2ccc3[nH]c(-c4cc(F)c5nccn5c4)c(C(C)C)c3c2)CC1 [Example 410, 2-(4-(2-(8-fluoroimidazo[1,2-a]pyridin-6-yl)-3-isopropyl-1H-indol-5-yl)piperidin-1-yl)-N-methylacetamide]
> 7.00 | > 7.00 | 4.30 to 6.00 | Cc1c(-c2[nH]c3ccc(C4CCN(CC(C)(C)O)CC4)cc3c2C(C)C)ccc2c1cnn2C [Example 763, 1-(4-(2-(1,4-dimethyl-1H-indazol-5-yl)-3-isopropyl-1H-indol-5-yl)piperidin-1-yl)-2-methylpropan-2-ol]
> 7.00 | 6.00 to 7.00 | 4.30 to 6.00 | Cc1cc(-c2[nH]c3ccc(C4CCN(C(=O)CN(C)C)CC4)cc3c2C(C)C)cc2c1oc(=O)n2C [Example 489, 5-(5-(1-(dimethylglycyl)piperidin-4-yl)-3-isopropyl-1H-indol-2-yl)-3,7-dimethylbenzo[d]oxazol-2(3H)-one]
